Measurements taken from patent US6011010A, “Cytotoxic and antiviral compound” (Pharma Mar, s.a., priority 1997, dated 2000).
Converted amounts (≈) assume the structure as drawn.

Experiments:
HSV II = conditions: Mv 1 Lu cells
HSV-1 = conditions: CV-1 cells
[1] = In vitro cytotoxicity, human lung carcinoma A-549 cell culture; assay type: cell-based; conditions: read-out: Cytotoxicity μg/mL (IC50)
Method: (§1) The antitumor activities of this compound have been determinated "in vitro" in cell cultures of human lung carcinoma A-549 and human colon carcinoma HT-29. The procedure was carried out using the methodology described by Raymond J. Bergeron et al., Biochem. Biophys. Res. Comm. 1984, 121 (3), 848-854 and by Alan C. Schroeder et al., J. Med. Chem. 1981, […] 1078-1083.

[2] = In vitro cytotoxicity, human colon carcinoma HT-29 cell culture; assay type: cell-based; conditions: read-out: Cytotoxicity μg/mL (IC50)
Method: as §1

Saccharomyces cerevisiae = conditions: 50 μg/disk

For C/C=C1\NC(=O)[C@H](Cc2ccccc2)NC(=O)[C@@H](C(C)C)NC(=O)[C@@H]([C@@H](C)CC)NC(=O)[C@H](NC(=O)[C@H](NC(=O)[C@H](CCCN)NC(=O)[C@H]2CCCN2C(=O)[C@H](NC(=O)[C@@H](NC(=O)[C@@H](NC(=O)[C@H](NC(=O)CCCC(C)C)C(C)C)[C@@H](C)O)C(C)C)C(C)C)[C@@H](C)CC)[C@@H](C)OC(=O)[C@H](C(C)C)NC1=O [Kahalalide F], which Antiviral % reduction (HSV II; at 0.5 μg/mL) is on record?
Its Antiviral % reduction is 95%.

What about the “Antiviral μg/mL (M.I.C.)” value (HSV II; concentration giving the printed % reduction) of the same compound?
Its value is 0.5 µg/mL.

And the “Antiviral μg/mL (M.I.C.)” value (HSV-1)?
Its value is > 8 µg/mL.

And the “Antiviral μg/mL (M.I.C.)” value (VSV)?
Its value is > 8.

And the IC50 [1]?
The IC50 was 2.5 µg/mL (≈ 1.69 µM).

What about the IC50 [2] of the same compound?
Its IC50 is 0.25 to 0.5 µg/mL (≈ 0.169 to 0.338 µM).

What about the “Antifungal 6 mm disk (zone)” value (Saccharomyces cerevisiae) of the same compound?
The value was “neg”.
